Assay results as given in patent US20220257595A1, “MACITENTAN FOR USE IN TREATING PORTOPULMONARY HYPERTENSION” (ACTELION PHARMACEUTICALS LTD, priority 2019, published 2022).
Entries after “also recorded” stand apart in the source; their conditions may differ.

How the values were obtained:
[1] = PORTICO PK substudy: steady-state plasma macitentan and ACT-132577; assay type: in vivo, human
Procedure: It was planned to enroll at least 20 patients who were on steady-state treatment with macitentan (i.e., at least 4 weeks) into the PK substudy. The substudy was conducted in consenting patients from all centers across all regions who agreed to participate. The substudy consisted of the following periods:
PK assessments period: PK assessments were to be performed after OL study treatment had been taken for at least 4 weeks. The substudy comprised two visits (Day 1: Enrollment and Day 2: Conclusion). See, FIG. 2. Subject eligibility was first checked on Day 1 of the PK substudy prior to the start of assessments.
PK substudy: On Day 1 of the PK substudy, the study treatment was required to be taken directly after the pre-dose blood sample. On Day 2 of the PK substudy, study treatment was required to be taken after the collection of the last PK blood sample (24 hours post Day 1 dose).
F3. Pharmacokinetic Endpoints for Macitentan and its Active Metabolite ACT-132577 • The area under the plasma concentration-time curve during one dosing interval (AUCt). • Maximum plasma concentration (Cmax) during a dosing interval. • The time to reach maximum plasma concentration (tmax) during a dosing interval.
(i) Timing for sampling: For the PK assessment, blood samples were drawn at the following time points: • PK substudy Day 1: Immediately before study treatment administration in the morning (pre-dose) and 1 h, 3 h, 5 h, 6 h, 7 h, 8 h, 9 h, 10 h, 12 h, and 14 h post-dose. • PK substudy Day 2: 24 h post-dose.
(iii) Bioanalysis: A validated liquid chromatography coupled to mass spectrometry method was used for determining the concentrations of macitentan and its metabolite ACT-132577 in plasma. The limit of quantification (LOQ) for both analytes was 1 ng/mL.
The measured individual plasma concentrations of macitentan and its metabolite ACT-132577 were used to directly obtain Cmax and tmax. AUCT was calculated according to the linear trapezoidal rule using the measured concentration-time values above the LOQ during one dosing interval. The PK variables were calculated on the basis of the real (actual) blood sampling time points. For mean value calculations, all values below the LOQ (below the limit of quantification (BLQ) values) were set to zero if ≤50% of the values at a given time point were BLQ. If >50% of the values at a given time point were BLQ, no mean value was calculated. Mean concentration-time profiles were generated using these criteria. The individual and mean plasma concentration-time profiles were plotted on a linear scale. The derived PK variables for macitentan and ACT-132577 (AUCT, Cmax, tmax) are listed by patient. Plasma concentrations per time point were summarized using arithmetic mean, minimum, median, maximum, standard deviation (SD), standard error (SE), and two-sided 95% confidence interval of the mean. […] (*For tmax the geometric mean and its 95% confidence interval were not calculated).

patients with PoPH [2] = assay: Post-hoc: MELD exception eligibility (mPAP/PVR); assay type: in vivo, human
Procedure: Post-Hoc, Exploratory Criteria: • Proportion of patients with NT-proBNP decrease from above 300 ng/L to below this threshold • Odds ratio for improvement to a more favorable liver transplant perioperative risk category • Odds ratio for becoming eligible for the MELD exception • Odds ratio for improvement to a more favorable waitlist mortality risk category
Risk categories related to liver transplant (transplant perioperative risk classification, MELD exception eligibility and waitlist mortality risk) were analyzed descriptively by treatment group using shift tables from baseline to Week 12 with categories as defined in Example 1.
LT perioperative risk classification, MELD exception eligibility, and waitlist mortality analyses were performed after the database lock and SDTMs delivery for the Double-Blind period. Number (%) of patients in following categories were summarized and presented in shift tables. The estimated odds ratio for risk improvement and corresponding 95% confidence intervals were obtained from an exact logistic regression (macitentan vs placebo) with factors for treatment and risk category at baseline.
In general, liver grafts are attributed in priority to patients who need a liver transplant the most urgently. This assessment lies mostly on the Model for End-stage Liver Disease (MELD) score: the higher the score, the higher the patient's priority on the waiting list. In PoPH, by the time MELD score is high enough to obtain a liver graft, the hemodynamic state is generally too severely impaired for the procedure. In the US, a PoPH MELD exception rule (MELD exception) is in place to facilitate access to a liver graft to patients with PoPH who attain mPAP ≤[…] and PVR ≤400 dyn·sec·cm^−5 with PAH treatment. Patients are priority-ranked on the waitlist with a higher MELD score than their actual score. This allows obtaining a liver graft at a time when liver impairment is moderate, before cardiopulmonary impairment becomes a contraindication to transplant.

patients with PoPH [3] = assay: Post-hoc: change in mPAP / PVR by baseline mPAP / PVR category; assay type: in vivo, human; conditions: for PVR Change from baseline to Week 12, Median / PVR Week 12, Median / PVR Change from baseline to Week 12, Mean / PVR Week 12, Mean / mPAP Week 12, Median / mPAP Week 12, Mean / mPAP Change from baseline to Week 12, Median / mPAP Change from baseline to Week 12, Mean: 10 mg, Full Analysis Set
Excerpt: This example provides post hoc analyses of the study performed in Example 1. These analyses include: • To assess the effect of macitentan on mean pulmonary arterial pressure (mPAP) related to pre-treatment mPAP. • To assess the effect of macitentan on pulmonary vascular resistance (PVR) related to pre-treatment PVR.
The following exploratory endpoints were defined for the post hoc analyses: • mPAP change related to pre-treatment mPAP. • PVR change related to pre-treatment PVR
All analyses were performed on the full analysis set (FAS, as per randomization, N=85) and no data imputation was performed.
Risk categories are noted in Table 38. To analyze change in mPAP relative to baseline mPAP, the same mPAP categories were used as for transplant perioperative risk classification (Table 38). For the analysis of change in PVR relative to baseline PVR, waitlist mortality risk PVR categories were used (Table 38).

[4] = prior nonclinical and clinical studies; cited from earlier work
[5] = PVR at baseline <= 450 dyn · sec/cm^5, n 12
[6] = PVR at baseline > 450 dyn · sec/cm^5, n 27
[7] = mPAP at baseline < 35 mmHg, n 2

Structure (SMILES): CCCNS(=O)(=O)Nc1ncnc(OCCOc2ncc(Br)cn2)c1-c1ccc(Br)cc1 [macitentan, N-[5-(4-Bromophenyl)-6-[2-[(5-bromo-2-pyrimidinyl)oxy]ethoxy]-4-pyrimidinyl]-N′-propylsulfamide]
- Plasma exposure in PoPH patients compared with other forms of PAH / other macitentan studies [1]: consistent between PoPH patients and patients with other forms of PAH; also recorded: comparable between patients with PoPH and other forms of PAH; also recorded: consistent with those in other macitentan studies
- Trough plasma concentration, mean±SD ([1]; OL macitentan 10 mg o.d. at least 4 weeks, PoPH patients, n=8): 213.1 ± 86.4 ng/mL
- Cmax ([1]; human, plasma, oral, macitentan 10 mg o.d., PoPH patients, PKS 10 patients, read-out: Cmax, geometric mean (95% confidence interval)): 369 ng/mL
- Tmax ([1]; human, plasma, oral, macitentan 10 mg o.d., PoPH patients, PKS 10 patients, read-out: tmax, median (range)): 6.5 h
- AUC(0-t) ([1]; human, plasma, oral, one dosing interval, macitentan 10 mg o.d., PoPH patients, read-out: AUCT, geometric mean (95% confidence interval)): 6660 ng·h/mL
- Liver transplant (MELD exception) eligibility based on mPAP/PVR: Week 12 Category 2 (mPAP ≤ 35 and PVR ≤ 400 dyn · sec/cm^5 = NO) (patients with PoPH [2]; Baseline Category 1 (n = 1), Full analysis set, 10 mg, N = 43): 0 n (%)
- Liver transplant (MELD exception) eligibility based on mPAP/PVR: Week 12 Category 1 (mPAP ≤ 35 and PVR ≤ 400 dyn · sec/cm^5 = YES) (patients with PoPH [2]; Total, Full analysis set, 10 mg, N = 43): 9 n (%)
- Odds of becoming eligible for the MELD exception, macitentan vs placebo (patients with PoPH [2]; Week 12, exact logistic regression): 4.51 times
- Patients not meeting MELD exception criteria at baseline who met them (mPAP ≤35 mmHg and PVR ≤400 dyn·sec·cm^−5) (patients with PoPH [2]; after 12 weeks, FAS no imputation, 8 patients): 18.6%
- Liver transplant eligibility: Between-treatment odds ratio for improvement, OR (patients with PoPH [2]; macitentan vs placebo, exact logistic regression, 95% CI 0.822, 46.462, p-value 0.0958): 4.512
- Macitentan-treated patients with a decrease in PVR at Week 12 compared to baseline (patients with PoPH [3]; FAS no imputation, 41 patients): 95.3%
- Macitentan-treated patients with a decrease in mPAP at Week 12 compared to baseline (patients with PoPH [3]; FAS no imputation, thirty-eight patients): 88.3%
- PVR Change from baseline to Week 12, Median (patients with PoPH [3]; [5]): −120.0 dyn · sec/cm^5
- PVR Week 12, Median (patients with PoPH [3]; [5]): 248.7 dyn · sec/cm^5
- PVR Change from baseline to Week 12, Mean (patients with PoPH [3]; PVR at baseline <= 450 dyn · sec/cm^5, n 12, SD 71.23): −116.4 dyn · sec/cm^5
- PVR Week 12, Mean (patients with PoPH [3]; PVR at baseline <= 450 dyn · sec/cm^5, n 12, SD 86.64): 264.6 dyn · sec/cm^5
- PVR Change from baseline to Week 12, Median (patients with PoPH [3]; [6]): −244.9 dyn · sec/cm^5
- PVR Week 12, Median (patients with PoPH [3]; [6]): 382.5 dyn · sec/cm^5
- PVR Change from baseline to Week 12, Mean (patients with PoPH [3]; PVR at baseline > 450 dyn · sec/cm^5, n 27, SD 125.48): −249.4 dyn · sec/cm^5
- PVR Week 12, Mean (patients with PoPH [3]; PVR at baseline > 450 dyn · sec/cm^5, n 27, SD 130.62): 400.7 dyn · sec/cm^5
- Mean (SD) decrease in mPAP at Week 12 (patients with PoPH [3]; and <45 mmHg): 5.2 (4.22) mmHg
- Mean (SD) decrease in PVR at Week 12 (patients with PoPH [3]; baseline PVR <450 dyn·s/cm^5): 116.4 (71.23) dyn·s/cm^5
- Mean (SD) decrease in PVR at Week 12 (patients with PoPH [3]; baseline PVR >450 dyn·s/cm^5): 249.4 (125.48) dyn·s/cm^5
- Mean (SD) decrease in mPAP at Week 12 (patients with PoPH [3]; baseline mPAP <35 mmHg): 2.0 (5.66) mmHg
- Mean (SD) decrease in mPAP at Week 12 (patients with PoPH [3]; baseline mPAP ≥45 mmHg): 7.8 (5.27) mmHg
- mPAP Week 12, Median (patients with PoPH [3]; mPAP at baseline 35 to < 45 mmHg, n 13): 36.0 mmHg
- mPAP Week 12, Mean (patients with PoPH [3]; mPAP at baseline 35 to < 45 mmHg, n 13, SD 3.84): 35.4 mmHg
- mPAP Change from baseline to Week 12, Median (patients with PoPH [3]; [7]): −2.0 mmHg
- mPAP Week 12, Median (patients with PoPH [3]; [7]): 29.0 mmHg
- mPAP Change from baseline to Week 12, Mean (patients with PoPH [3]; mPAP at baseline < 35 mmHg, n 2, SD 5.66): −2.0 mmHg
- mPAP Week 12, Mean (patients with PoPH [3]; mPAP at baseline < 35 mmHg, n 2, SD 8.49): 29.0 mmHg
- mPAP Week 12, Median (patients with PoPH [3]; mPAP at baseline >= 45 mmHg, n 24): 43.0 mmHg
- mPAP Week 12, Mean (patients with PoPH [3]; mPAP at baseline >= 45 mmHg, n 24, SD 7.04): 44.0 mmHg
- mPAP Change from baseline to Week 12, Median (patients with PoPH [3]; mPAP at baseline ≥ 35 to < 45 mmHg, n 13): −5.0 mmHg
- mPAP Change from baseline to Week 12, Mean (patients with PoPH [3]; mPAP at baseline ≥ 35 to < 45 mmHg, n 13, SD 4.22): −5.2 mmHg
- mPAP Change from baseline to Week 12, Median (patients with PoPH [3]; mPAP at baseline ≥ 45 mmHg, n 24): −7.5 mmHg
- mPAP Change from baseline to Week 12, Mean (patients with PoPH [3]; mPAP at baseline ≥ 45 mmHg, n 24, SD 5.27): −7.8 mmHg
- Toxicities associated with macitentan treatment [4]: associated with teratogenicity, dose-related anemia/decrease in hemoglobin concentration, and hepatotoxicity
